Key:
Type in all cases: in vivo
[1] = test system: db/db mice; experiment: Measurement of fasting blood glucose level; conditions: MET 350 mg/kg, 2 d after oral administration, data not shown
Experimental: Fasting blood glucose means blood glucose level under the basal condition, reflecting the basal function of pancreatic islet B cells, and is an important criterion for diagnosis of diabetes mellitus. Oral glucose tolerance test means determination of fasting blood glucose after animals are fasted, and then animals are administered with the drug and administered intragastrically with glucose solution at the corresponding timepoints, and blood glucose is measured prior to intragastric administration of glucose, and 30 min, 60 min and 120 min after intragastric administration of glucose.
(§1) To investigate TCM complex for prevention and treatment of type II diabetes mellitus in animal model, grade SPF BKS.Cg-Dock7m+/+Leprdb/J mice (referred to as db/db mice for short) were used to conduct a hypoglycemic experiment validation. The mice were allowed with free access to feed and water. The mice were assigned into 4 groups (4 mice per group), and were administered intragastrically with the complex, once per day. […] The animals of each group were orally administered with the sample to Week 4. Urine and blood were collected 4 week later. […]
After animals were fasted for 4-6 h, blood was collected at tail end to measure fasting blood glucose. Fasting blood glucose was measured for 4 times, i.e.: prior to grouping, and D2, D7, and D15 after administration of the drug.

[2] = test system: db/db mice; experiment: Non-fasting blood glucose level; conditions: MET 350 mg/kg, D4 after oral administration
Experimental: The measured value of 2-H postprandial blood glucose test is the most valuable and may reflect reserve function of pancreatic islet B cells. Blood glucose is measured after animals eat feed.
as §1
The animals were fed randomly and then blood was collected at tail end to measure non-fasting blood glucose level. Fasting blood glucose was measured for […], i.e.: prior to grouping, and 24 h, D4, D7, D15, D21, and D27 after administration of the drug.

[3] = test system: db/db mice; experiment: Measurement of glycosylated hemoglobin (HbAlc) concentration; conditions: D29, once per day intragastric, RX-6 6 mg/kg, RX-12 12 mg/kg, MET 350 mg/kg, NOR 8.85%, FIG. 2
Description: Glycosylated hemoglobin (GHb) is a product hemoglobin in red blood cells, conjugated with saccharides in serum. GHb is formed via slow, persistent, and irreversible glycation; its content is dependent on blood glucose concentration, and exposure duration of blood glucose to hemoglobin, and independent of blood collection time, patients' fasting or non-fasting status, or insulin use or non-use, etc. Therefore, GHb may efficiently reflect blood glucose control in patients with diabetes mellitus in the past 1-2 month.
Test method: after animal are fasted, 20 μL of whole blood is collected and placed into an EP tube containing HbAlc diluent; the content of HbAlc is measured by a full-automatic analyzer. The specific method refers to the Instructions of the Kit.
To investigate TCM complex for prevention and treatment of type II diabetes mellitus in animal model, grade SPF BKS.Cg-Dock7m+/+Leprdb/J mice (referred to as db/db mice for short) were used to conduct a hypoglycemic experiment validation. The mice were allowed with free access to feed and water. […]
The concentration was measured on D29 after oral administration of the drug. The animals were fasted for 4-6 h, and then anesthetized by inhalation of isoflurane; […] of whole blood was collected from orbital venous plexus and placed into a EP tube containing HbAlc diluent; the content of HbAlc was measured by a full-automatic analyzer. […]

[4] = test system: db/db mice; experiment: Quantitative test for UTP 24-h urine protein (diabetic nephropathy test); conditions: D29, RX-6 6 mg/kg, RX-12 12 mg/kg, MET 350 mg/kg, NOR 39.30 mg/DL, FIG. 3
Description: (§2) Overnight urine is collected and placed on crushed ice to test urine total protein, urine albumin, urine microalbumin, and urine creatinine.
(§3) To investigate TCM complex for prevention and treatment of type II diabetes mellitus in animal model, grade SPF BKS.Cg-Dock7m+/+Leprdb/J mice (referred to as db/db mice for short) were used to conduct a hypoglycemic experiment validation. The mice were allowed with free access to feed and water. The mice were assigned into 4 groups (4 mice per group), and were administered intragastrically with the complex, once per day. […] The animals of each group were orally administered with the sample to Week 4. Urine and blood were collected 4 week later.
(§4) The drugs in the drug groups included Poria, Semen Coicis, Rhizoma Dioscoreae, Semen Euryales, Semen Nelumbinis, Endothelium Corneum Gigeriae Galli, and Paeonia Lactiflora; the preparation method is that, Poria, Semen Coicis, Rhizoma Dioscoreae, Semen Euryales, Semen Nelumbinis, Endothelium Corneum Gigeriae Galli, and Paeonia Lactiflora were prepared and then compounded in a weight ratio of 1:1:1:1:1:1:2 to produce a powder. […]
Quantitative test for 24 h urine protein (UTP24) is a urine test method in which 24-h discharged total urine is collected to conduct a […] test.

[5] = test system: db/db mice; experiment: Test for mAlb urine microalbumin (diabetic nephropathy test); conditions: D29, RX-6 6 mg/kg, RX-12 12 mg/kg, MET 350 mg/kg, NOR 20.10 mg/L, FIG. 5
Description: as §2, §3
as §4, with “powder. The obtained powder was diluted in a certain proportion to obtain RX−6 of the low dose (6 mg/kg) drug group, and RX-12 of the high dose (12 mg/kg) drug group.” for “powder.”

[6] = test system: db/db mice; experiment: Test for urine creatinine (diabetic nephropathy test); conditions: 29-d raise, MET 350 mg/kg, FIG. 6
Description: as §2, §3
as §4, with “powder. The obtained powder was diluted in a certain proportion to obtain RX−6 of the low dose (6 mg/kg) drug group, and RX-12 of the high dose (12 mg/kg) drug group.” for “powder.”

CN(C)C(=N)N=C(N)N [MET, metformin]
fasting blood glucose level compared with negative control group NOR [1]: less than that in negative control group NOR
non-fasting blood glucose level compared with control [2]: less than that in the positive control
glycosylated hemoglobin value (HbAlc) [3]: 6%
UTP24 h urine protein [4]: 39.65 mg/dL
mAlb urine microalbumin content [5]: 8.50 mg/L
urine creatinine increased than that in the negative control group NOR [6]: 10.5 µM

From patent US20220047658A1, “TCM ADDITION AND SUBTRACTION PRESCRIPTION USED PREVENTION/TREATMENT OF METABOLIC SYNDROME AND COMPLICATIONS” (priority 2019, published 2022)
